Consider 4 molecules from article doi:10.1101/2023.02.27.530254, “Large library docking for cannabinoid-1 receptor agonists with reduced side effects” (bioRxiv, 2024).

The target of data set [1] is hCB2 (Homo sapiens, UniProt P34972). The experiment in a line: bioSens-All ebBRET effector biosensor signaling profiling, HEK293. Format: cell-based. On the set-up: host or cells: HEK293 (HEK293SL clone), transient. As to conditions: for RE, relative efficacy: versus CP-55,940.
For data set [2], the system named is C56BL/6 mice. The experiment in a line: Open field test of hypolocomotion. Format: in vivo, mouse. As to conditions: for motor effect versus vehicle at analgesic doses: open field and rotarod tests. The method, then:
Thirty minutes after i.p. injection, mice were placed in the center of a round open-field (2 feet diameter) and their exploratory behavior recorded over the next 15 minutes. Distance traveled was used to represent open field behavior.

For data set [3], the system named is C56BL/6 mice. The experiment in a line: Catalepsy test (vertical wire mesh). As to conditions: for cataleptic behavior: analgesic doses (0.2 or 0.5 mg/kg), 30 minutes or 1-hour post-injection; for concentration window between anti-allodynia or analgesia versus catalepsy and sedation, maximum: depending on the nociceptive behavior. Format: in vivo, mouse. The method, then: Thirty and 60 minutes after an i.p. injection of the compounds, mice were placed on a vertical wire mesh and the latency to move all four paws was recorded.

Data set [4] addresses T1, hCB1 (Homo sapiens, UniProt P21554). The experiment in a line: Tango β-arrestin-2 recruitment assay, HTLA cells. Format: cell-based. To be noted: for Emax: HTLA, read-out: hCB1 Tango ß-arrestin recruitment Emax [95% CI]. Further details: expressed in transfected cells. The method, then: The Tango β-arrestin-2 recruitment assays were performed as described. In brief, HTLA cells were transiently transfected with human CB1R or CB2R Tango DNA construct overnight in DMEM supplemented with 10 % FBS, 100 μg ml−1 streptomycin and 100 U ml−1 penicillin. The transfected cells were then plated into poly-L-lysine-coated 384-well white clear-bottom cell culture plates in DMEM containing 1% dialysed FBS at a density of 10,000–15,000 cells per well. After incubation for 6 h, the plates were added with drug solutions prepared in DMEM containing 1% dialysed FBS for overnight incubation. On the day of assay, medium and drug solutions were removed and 20 μl per well of BrightGlo reagent (Promega) was added. The plates were further incubated for 20 min at room temperature and counted using the Wallac TriLux Microbeta counter (PerkinElmer). The results were analysed using GraphPad Prism 9.1. Each experiment was performed in triplicate and functional […] values were determined from the mean of three independent experiments.
(Recruitment of arrestin is a read-out of receptor activation apart from second messengers.)

Data set [5] deals with T1, hCB1. The experiment in a line: Lance Ultra cAMP accumulation assay (inhibition of forskolin-stimulated cAMP), CHO cells. Format: cell-based. On the set-up: expressed in transfected cells. As to conditions: for Emax: CHO, read-out: hCB1 Lance Ultra cAMP Emax [95% CI]. The method, then:
The inhibition of forskolin-stimulated cAMP accumulation assays was carried out using PerkinElmer’s Lance Ultra cAMP kit following the manufacturer’s protocol. In brief, CHO cells stably expressing human CB1R were harvested by incubation with Versene (ThermoFisher Scientific, Waltham, MA) for 10 min, washed once with Hank’s Balanced Salt Solution, and resuspended in stimulation buffer at ~200 cells/μL density. The ligands at eight different concentrations (0.001–10,000 nM) in stimulation buffer (5 μL) containing forskolin (2 μM final concentration) were added to a 384-well plate followed by the cell suspension (5 μL; ~1000 cells/well). The plate was incubated for 30 min at room temperature. Eu-cAMP tracer (5 μL) and Ulight-anti-cAMP (5 μL) working solutions were then added to each well, and the plate was incubated at room temperature for an additional 60 min. Results were measured on a Perkin-Elmer EnVision plate reader. The EC50 values were determined by nonlinear regression analysis using Prism software (GraphPad Software, Inc., San Diego, CA) and are expressed as the mean of three experiments, each performed in triplicate.
Background: Cyclic AMP is a second messenger, typically raised through Gs and lowered through Gi signalling.

In data set [6] the target is T2, CB1 (Rattus norvegicus, UniProt P20272).
T2 construct: membrane preparations from rat brain (source of CB1); tissue Bioivt RAT00BRAINMZN; host or cells: rat brain
The experiment in a line: Radioligand competition binding with [3H]-CP-55,940, rat brain membranes. To be noted: for Emax: maximal radioligand displacement, read-out: rCB1 binding Emax [SEM]; for Ki: [3H]-CP-55,940 competition, rat brain membranes; for LE: ligand efficiency; for LLE: lipophilic ligand efficiency. The method, then:
The results were analyzed using nonlinear regression to determine the IC50 and Ki values for each ligand (Prism by GraphPad Software, Inc., San Diego, CA). The Ki values are expressed as the mean of two to three experiments each performed in triplicate.
A general note: Loss of bound radioactivity is the signal in a displacement assay; it reports binding, not function.

[7] abbreviates: HEK293, read-out: hCB2 Barr2 + GRK2 Emax [95% CI].
Where [8] appears, read: HEK293, read-out: hCB2 Gi1 Emax [95% CI].
Where [9] appears, read: HEK293, read-out: hCB2 Gi2 Emax [95% CI].
Setting [10] is: HEK293, read-out: hCB2 GoB Emax [95% CI].
The mark [11] stands for this setting: HEK293, read-out: hCB2 Gz Emax [95% CI].

Values joined by “and” are separate entries in the source; they are usually repeats but may differ in a detail not shown here. Identical values can stand only once. Like-named read-outs stand apart in the source and are kept apart here.

T1 sequence (P21554 whole entry): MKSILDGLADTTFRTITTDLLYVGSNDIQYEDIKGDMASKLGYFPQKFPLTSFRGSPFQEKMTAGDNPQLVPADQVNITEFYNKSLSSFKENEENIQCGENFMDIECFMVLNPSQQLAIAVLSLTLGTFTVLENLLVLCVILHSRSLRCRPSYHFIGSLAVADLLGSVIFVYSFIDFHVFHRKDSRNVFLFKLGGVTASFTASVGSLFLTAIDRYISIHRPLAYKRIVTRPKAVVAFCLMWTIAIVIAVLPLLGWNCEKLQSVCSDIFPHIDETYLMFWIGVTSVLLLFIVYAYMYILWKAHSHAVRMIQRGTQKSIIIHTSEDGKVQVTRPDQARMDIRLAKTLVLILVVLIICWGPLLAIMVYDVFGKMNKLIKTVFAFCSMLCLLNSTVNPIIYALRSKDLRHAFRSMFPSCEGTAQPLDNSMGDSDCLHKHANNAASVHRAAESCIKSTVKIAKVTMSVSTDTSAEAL
T2 sequence (P20272 whole entry): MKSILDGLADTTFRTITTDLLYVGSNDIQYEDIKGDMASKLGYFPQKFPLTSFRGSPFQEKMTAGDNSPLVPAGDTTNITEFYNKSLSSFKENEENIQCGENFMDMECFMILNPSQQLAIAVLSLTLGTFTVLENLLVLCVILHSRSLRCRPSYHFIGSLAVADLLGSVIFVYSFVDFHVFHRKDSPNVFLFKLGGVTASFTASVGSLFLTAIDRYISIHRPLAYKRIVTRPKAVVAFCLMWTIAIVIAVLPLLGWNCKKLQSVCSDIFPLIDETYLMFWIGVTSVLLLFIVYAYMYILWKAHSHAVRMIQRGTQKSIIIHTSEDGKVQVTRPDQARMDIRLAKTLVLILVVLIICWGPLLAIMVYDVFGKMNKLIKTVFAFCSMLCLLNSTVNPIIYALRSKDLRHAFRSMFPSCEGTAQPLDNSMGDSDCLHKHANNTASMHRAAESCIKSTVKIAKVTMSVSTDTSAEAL
hCB2, sequence (P34972 whole entry): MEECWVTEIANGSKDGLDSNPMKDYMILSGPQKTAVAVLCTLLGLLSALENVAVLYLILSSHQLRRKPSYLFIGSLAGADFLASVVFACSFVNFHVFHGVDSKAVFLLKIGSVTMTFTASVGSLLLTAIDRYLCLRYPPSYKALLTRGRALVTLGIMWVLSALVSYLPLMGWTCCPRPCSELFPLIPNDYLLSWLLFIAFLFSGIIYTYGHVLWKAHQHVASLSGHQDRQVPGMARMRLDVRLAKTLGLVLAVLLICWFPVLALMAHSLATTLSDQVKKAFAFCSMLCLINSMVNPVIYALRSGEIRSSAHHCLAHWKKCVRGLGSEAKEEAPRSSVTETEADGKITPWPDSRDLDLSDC

For orientation: Emax means the greatest response seen or fitted, relative to the assay's reference. As for `CCCCCCC(C)(C)c1ccc([C@@H]2C[C@H](O)CC[C@H]2CCCO)c(O)c1` [CP-55,940, reference compound], the Emax in data set [1] (setting [7]) came out at 100%; in data set [1] (setting [8]) it was 100%; in data set [1] (setting [9]), 100%; in data set [1] (setting [10]) it was 100%; in data set [4], 100%; in data set [5], 85%. Moreover, in data set [2], the “motor effect versus vehicle at analgesic doses” value was “caused motor impairment in both the rotarod and open field tests”. The “dose at which catalepsy was recorded” value in data set [3] (C56BL/6, mouse, in vivo, intraperitoneal) came to 0.2 mg/kg. Moreover, the “window between analgesia and catalepsy” value in data set [3] (mouse, in vivo) was “no window”.
A word on the EC50: it is the concentration needed to bring the measured effect to its halfway point. Usually Ki stands for a measure of affinity in units of concentration, obtained from inhibition or displacement. For `COC(=O)[C@@](C)(NC(=O)c1cc(C)n(-c2cccc(C(F)(F)F)c2)n1)c1cccs1` [‘1350], the Emax in data set [1] (setting [7]) amounted to 30%; in data set [1] (setting [8]), 74%; in data set [1] (setting [9]), 61%; in data set [1] (setting [10]), 59%; in data set [1] (setting [11]) it was 52%; in data set [6], 106%. For the same molecule, the Emax in data set [5] was determined as 77%. In addition, the EC50 in data set [1] (hCB2 Barr2 + GRK2 pEC50 [95% CI]) was 4.17 nM; in data set [1] (hCB2 Gi1 EC50 [95% CI]) it was 3.55 nM; in data set [1] (hCB2 Gi2 pEC50 [95% CI]) it was 1.62 nM; in data set [1] (hCB2 GoB pEC50 [95% CI]), 2.63 nM; in data set [1] (hCB2 Gz EC50 [95% CI]) it was 2.6 nM; in data set [1] (hCB2 Gz pEC50 [95% CI]), 2.63 nM. This molecule had an EC50 in data set [5] of 1.6 nM. The “RE, relative efficacy” value is on record as 0.29 in data set [1] (hCB2 Gi1); 0.40 in data set [1] (hCB2 Gi2); 0.40 in data set [1] (hCB2 GoB); 0.22 in data set [1] (hCB2 Gz); 0.92 in data set [1] (hCB2 ßarr2 + GRK2). Also, the “dose showing locomotor deficits” value in data set [2] (open field test) amounted to 0.2 mg/kg. Besides, the cataleptic behavior result in data set [3] is on record as “did not induce cataleptic behavior”. Moreover, the “concentration window between anti-allodynia or analgesia versus catalepsy and sedation, maximum” value in data set [3] is listed as “up to a twenty-fold”. In data set [3] (mouse, in vivo), the “concentration window between anti-allodynia or analgesia versus catalepsy and sedation, typical” value is “five- to ten-fold”. In data set [3] (mouse, in vivo), the “dose at which catalepsy was recorded” value was > 1.0 mg/kg and 1 mg/kg. The “window between anti-allodynia and catalepsy” value in data set [3] (tail-flick and hot-plate, 0.1 mg/kg vs 1 mg/kg highest tested dose) is given as “at least a ten-fold”. In addition, the results for the Ki in data set [6] (rCB1 binding Ki [95% CI]) and in data set [6] (rCB1 binding pKi [95% CI]) were 0.95 nM and 1 nM, respectively. The “hCB1 Lance Ultra cAMP Emax [95% CI]” value in data set [5] is listed as 78%.
As to `COC(=O)C(C)(NC(=O)c1cc(C)n(-c2cccc(C(F)(F)F)c2)n1)c1cccs1` (stereo not shown) [‘4042], the Emax was 33% in data set [1] (setting [7]); 82% in data set [1] (setting [8]); 70% in data set [1] (setting [9]); 61% in data set [1] (setting [10]); 56% in data set [1] (setting [11]); 99% in data set [6]. In addition, the Emax in data set [4] stood at 102%; in data set [5], 78%. Moreover, the EC50 in data set [1] (hCB2 Barr2 + GRK2 EC50 [95% CI]) is 5.5 nM; in data set [1] (hCB2 Gi1 EC50 [95% CI]) it was 2.7 nM; in data set [1] (hCB2 Gi1 pEC50 [95% CI]), 2.63 nM; in data set [1] (hCB2 Gi2 pEC50 [95% CI]) it was 1.26 nM; in data set [1] (hCB2 GoB pEC50 [95% CI]), 2.51 nM; in data set [1] (hCB2 Gz EC50 [95% CI]), 1.36 nM. Also, the EC50 was found to be 10.7 nM in data set [4] and 3.3 nM in data set [5]. Moreover, the “RE, relative efficacy” value stood at 0.63 in data set [1] (hCB2 Gi1); 0.59 in data set [1] (hCB2 Gi2); 0.47 in data set [1] (hCB2 GoB); 0.38 in data set [1] (hCB2 Gz); 0.82 in data set [1] (hCB2 ßarr2 + GRK2). In addition, the “motor effect versus vehicle at analgesic doses” value in data set [2] is recorded as “no significant differences”. Also, in data set [3], the cataleptic behavior entry is given as “did not induce cataleptic behavior”. Also, the “concentration window between anti-allodynia or analgesia versus catalepsy and sedation, maximum” value in data set [3] is listed as “up to a twenty-fold”. In data set [3] (mouse, in vivo), the “concentration window between anti-allodynia or analgesia versus catalepsy and sedation, typical” value is recorded as “five- to ten-fold”. Further, in data set [3] (mouse, in vivo), the “dose at which catalepsy was recorded” value is recorded as over 1.0 mg/kg. Besides, the “window between analgesia and both sedation and catalepsy” value in data set [3] (typical) is 5–10 fold. Besides, the LE in data set [6] is recorded as 0.41. In data set [6], this molecule displayed an LLE of 4.6. Further, in data set [6] (rCB1 binding Ki [95% CI]), the Ki was 1.9 nM and 1.86 nM.
Turning to `COC(=O)C(NC(=O)c1cc(C)n(-c2cccc(C(F)(F)F)c2)n1)c1cccs1` (stereo not shown) [‘60154], the LE in data set [6] is listed as 0.36. This molecule gave an LLE in data set [6] of 3.5. The Emax worked out at 110% in data set [6], 39% in data set [4] and 67% in data set [5]. Moreover, the Ki in data set [6] (rCB1 binding Ki [95% CI]) was 44.3 nM; in data set [6] (rCB1 binding pKi [95% CI]), 39.8 nM. In addition, the EC50 in data set [4] is 794 nM; in data set [5], 316 nM.
